In US9783511B2, “Carbamate benzoxazine propionic acids and acid derivatives for modulation of RORgamma activity and the treatment of disease” (Merck Sharp & Dohme Corp., priority 2013, dated 2017) one finds IC50 data, which are given here for eight molecules.

This test deals with human RORgammaT-Ligand Binding Domain (LBD) (Homo sapiens (Human), UniProt P51449). In words: RORγ-Ligand Binding Domain TR-FRET Assay (co-activator peptide SRC1_2 recruitment). The format is biochemical. The following applies: HIS-tagged RORγ-LBD 3 nM, biotinylated SRC1 LXXLL peptide 100 nM, incubated overnight at 4° C., 665 nm/615 nm ratio. The source says: Activation of RORgammaT activity can be measured using, e.g., a biochemical TR-FRET assay. In such an assay, interaction of cofactor-derived peptides with human RORgammaT-Ligand Binding Domain (LBD) can be measured.
human RORgammaT-Ligand Binding Domain (LBD), sequence (P51449 269-508): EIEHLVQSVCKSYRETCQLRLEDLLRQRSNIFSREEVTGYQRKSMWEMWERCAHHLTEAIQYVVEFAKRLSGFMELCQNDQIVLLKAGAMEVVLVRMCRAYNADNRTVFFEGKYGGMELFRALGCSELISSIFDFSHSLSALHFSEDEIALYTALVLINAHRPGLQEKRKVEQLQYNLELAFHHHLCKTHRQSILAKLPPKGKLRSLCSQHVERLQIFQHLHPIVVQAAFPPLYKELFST
To identify novel antagonists of RORgammaT, an assay was developed which employs the interaction of RORgammaT with its co-activator peptide SRC1_2. […] The RORγ-Ligand Binding Domain TR-FRET Assay was run according to the following protocol.
HIS-tagged RORγ-LBD protein was recombinantly expressed in Escherichia coli. The RORγ-LBD protein was purified by Ni^2+-affinity resin. Purified protein was then diluted in assay buffer (50 mM Tris pH 7.0, 50 mM KCl, 1 mM EDTA, 0.1 mM DTT, 100 μg/mL bovine serum albumin, delipidated) to obtain a RORγ-LBD final concentration of 3 nM.
Compounds to be tested were injected to the 384-well assay plate using Acoustic Droplet Ejection technology by Echo 550 liquid handler (Labcyte, CA).
In general terms: TR-FRET usually uses a lanthanide donor and a delayed reading to cut background.
Take `COc1cc(S(=O)(=O)N2C[C@H](CC(C)(CO)C(=O)O)Oc3ccc(NC(=O)OC(C)(C)C(F)(F)F)cc32)ccc1F` (single isomer, unassigned) [Example 18L, (S or R)-3-((S)-4-((4-fluoro-3-methoxyphenyl)sulfonyl)-6-((((1,1,1-trifluoro-2-methylpropan-2-yl)oxy)carbonyl)amino)-3,4-dihydro-2H-benzo[b][1,4]oxazin-2-yl)-2-(hydroxymethyl)-2-methylpropanoic acid]: the IC50 (in general, the concentration needed to halve the response being measured) stood at 10.4 nM. In the case of `COc1cc(S(=O)(=O)N2C[C@H]([C@@H]3C[C@@H]3C(=O)O)Oc3ccc(NC(=O)OC(C)(C)C(F)(F)F)cc32)ccc1F` (single isomer, unassigned) [Example 22N, (1R,2S or 1R,2R or 1S,2S or 1S,2R)-2-((S)-4-((4-fluoro-3-methoxyphenyl)sulfonyl)-6-((((1,1,1-trifluoro-2-methylpropan-2-yl)oxy)carbonyl)amino)-3,4-dihydro-2H-benzo[b][1,4]oxazin-2-yl)cyclopropanecarboxylic acid], the IC50 was 5.87 nM. Regarding `Cc1ccc(S(=O)(=O)N2C[C@H]([C@H]3C[C@H]3C(=O)O)Oc3ccc(NC(=O)OC(C)(C)C(F)(F)F)cc32)cc1` (single isomer, unassigned) [Example 22E, (1S,2S or 1R,2R or 1S,2R or 1R,2S)-2-((S)-4-tosyl-6-((((1,1,1-trifluoro-2-methylpropan-2-yl)oxy)carbonyl)amino)-3,4-dihydro-2H-benzo[b][1,4]oxazin-2-yl)cyclopropanecarboxylic acid], the IC50 stood at 47.1 nM. Consider `CCc1nc(S(=O)(=O)N2C[C@H](CC(C)(C)C(=O)O)Oc3ccc(NC(=O)OC(C)(C)C(F)(F)F)cc32)c(OCC(F)(F)F)s1` [Example 12R, 3-[(2S)-4-{[2-ethyl-5-(2,2,2-trifluoroethoxy)-1,3-thiazol-4-yl]sulfonyl}-6-{[(2,2,2-trifluoro-1,1-dimethylethoxy)carbonyl]ami-no}-3,4-dihydro-2H-1,4-benzoxazin-2-yl]-2,2-dimethylpropanoic acid], for which the IC50 was 12.6 nM. With `Cc1cncc(S(=O)(=O)N2C[C@H](CCC(=O)O)Oc3ccc(NC(=O)OC(C)(C)C(F)(F)F)cc32)c1` [Example 6BX, 3-[(2S)-4-[(5-methylpyridin-3-yl)sulfonyl]-6-{[(2,2,2-trifluoro-1,1-dimethylethoxy)carbonyl]amino}-3,4-dihydro-2H-1,4-benzoxazin-2-yl]propanoic acid], the IC50 was 32.4 nM.

For `Cc1cc(S(=O)(=O)N2C[C@H](CCC(=O)O)Oc3c(F)cc(NC(=O)OC(C)(C)C(F)(F)F)cc32)ccc1F` [Example 29A, 3-[(2S)-8-fluoro-4-[(4-fluoro-3-methylphenyl)sulfonyl]-6-{[(2,2,2-trifluoro-1,1-dimethylethoxy)carbonyl]ami-no}-3,4-dihydro-2H-1,4-benzoxazin-2-yl]propanoic acid], the IC50 turned out to be 5.71 nM. `CC(C)(OC(=O)Nc1ccc2c(c1)N(S(=O)(=O)c1cccc(C(F)(F)F)c1)C[C@H](CC(O)C(=O)O)O2)C(F)(F)F` (mixture of isomers) [Example 15, (R and S)-2-hydroxy-3-((S)-6-((((1,1,1-trifluoro-2-methylpropan-2-yl)oxy)carbonyl)amino)-4-((3-(trifluoromethyl)phenyl)sulfonyl)-3,4-dihydro-2H-benzo[b][1,4]oxazin-2-yl)propanoic acid]: the IC50 was 18.1 nM. In the case of `Cc1cccc(S(=O)(=O)N2C[C@H](C[C@@H](C)C(=O)O)Oc3ccc(NC(=O)OC(C)(C)C(F)(F)F)cc32)c1` (single isomer, unassigned) [Example 6CK, (S or R)-2-methyl-3-((S)-4-(m-tolylsulfonyl)-6-((((1,1,1-trifluoro-2-methylpropan-2-yl)oxy)carbonyl)amino)-3,4-dihydro-2H-benzo[b][1,4]oxazin-2-yl)propanoic acid], the IC50 is 14.5 nM.
